This is an account of results in US20250011368A1, “DLL3 TARGETING PEPTIDES AND CONSTRUCTS THEREOF” (MARIANA ONCOLOGY INC., priority 2023, published 2025).

Each structure is given as a SMILES string. Bridge positions count the residues as written; N and C are the ends. Square brackets hold non-standard residues; d marks the D form. Peptide text beside a SMILES is read from it. * marks the point of attachment. ξ: configuration not given here. X2 = O=C(O)CN1CCN(CC(=O)O)CCN(CC(=O)NCCOCCOCCOCCOCCOCCOCCOCCOCC(=O)*)CCN(CC(=O)O)CC1; X4 = O=C(O)CN1CCN(CC(=O)O)CCN(CC(=O)N[C@H]2CC[C@H](CC(=O)*)CC2)CCN(CC(=O)O)CC1; DOTA = O=C(O)CN1CCN(CC(=O)O)CCN(CC(=O)*)CCN(CC(=O)O)CC1; Trp(5-OMe) = COc1ccc2[nH]cc(C[C@H](N)C(=O)O)c2c1; Trp(7-aza) = N[C@@H](Cc1c[nH]c2ncccc12)C(=O)O; 1Nal = N[C@@H](Cc1cccc2ccccc12)C(=O)O; 2Nal = N[C@@H](Cc1ccc2ccccc2c1)C(=O)O; ξW = NC(Cc1c[nH]c2ccccc12)C(=O)O; Octanoyl = CCCCCCCC(=O)*; Dab = NCC[C@H](N)C(=O)O; Hexanoyl = CCCCCC(=O)*; ξC = NC(CS)C(=O)O

A word on the Kd: it is the equilibrium constant for the complex coming apart.

The experiment has as its target T1, human DLL3 (Homo sapiens, UniProt Q9NYJ7).
T1 sequence (Q9NYJ7 27-618): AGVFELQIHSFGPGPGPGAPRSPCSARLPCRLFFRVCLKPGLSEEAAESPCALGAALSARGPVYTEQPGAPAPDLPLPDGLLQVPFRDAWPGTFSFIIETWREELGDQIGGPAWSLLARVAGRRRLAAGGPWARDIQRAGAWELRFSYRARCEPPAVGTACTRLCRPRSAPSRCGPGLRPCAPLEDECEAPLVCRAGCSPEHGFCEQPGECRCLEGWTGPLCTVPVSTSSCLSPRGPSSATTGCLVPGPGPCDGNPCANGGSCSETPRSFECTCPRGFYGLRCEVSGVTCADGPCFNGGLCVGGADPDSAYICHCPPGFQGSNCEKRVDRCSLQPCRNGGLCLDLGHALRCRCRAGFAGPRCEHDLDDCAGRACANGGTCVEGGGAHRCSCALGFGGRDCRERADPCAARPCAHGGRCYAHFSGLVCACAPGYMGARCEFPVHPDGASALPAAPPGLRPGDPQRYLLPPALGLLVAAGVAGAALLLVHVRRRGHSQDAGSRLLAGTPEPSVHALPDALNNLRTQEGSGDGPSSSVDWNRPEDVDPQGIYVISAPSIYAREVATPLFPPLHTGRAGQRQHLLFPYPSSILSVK
In words: Affinity determination by Surface Plasmon Resonance (SPR). The settings on record: 25° C., biotinylated human DLL3 immobilized on streptavidin sensor chip, 1:1 binding model; read-out: SPR KD. The class given is binding. The protocol: SPR studies were performed on the compounds disclosed herein using the following protocol.
Biotinylated target ligand human DLL3 was immobilized on a streptavidin sensor chip. A reference surface was set up for nonspecific binding and refractive index changes. For analysis of the kinetics of interactions, varying concentrations of samples were injected at a flow rate of 100 μL/minute using running buffer containing 20 mM phosphate buffer with 2.7 mM KCl, 137 mM NaCl, 0.05% Surfactant P20 and 2% DMSO. Sensorgram curves were fitted with 1:1 binding model, and affinity and kinetic parameters were obtained using Biacore Insight evaluation 4.0. software.

With `CC[C@H](C)[C@H](NC(=O)[C@@H](NC(=O)[C@H](Cc1c[nH]c2ccccc12)NC(C)=O)[C@@H](C)O)C(=O)N[C@H]1CSSC[C@@H](C(=O)N[C@@H](Cc2c[nH]c3ccccc23)C(=O)N2CCC[C@H]2C(=O)N[C@H](CCCCNC(=O)C[C@H]2CC[C@H](NC(=O)CN3CCN(CC(=O)O)CCN(CC(=O)O)CCN(CC(=O)O)CC3)CC2)C(N)=O)NC(=O)[C@H](CC(=O)O)NC(=O)[C@H](Cc2cnc[nH]2)NC(=O)[C@H](Cc2c[nH]c3ccccc23)NC(=O)[C@H](CC(N)=O)NC(=O)[C@H](CC(N)=O)NC1=O` [compound 48, Ac-W-T-I-C(3)-N-N-W-H-D-C(3)-W-P-(D-Lys)-CyHex-DOTA-NH2] (Ac-WTICNNWHDCWP[dK](X4)-NH2; disulfide 4-10), the Kd lay within 1 to 10 nM.

On to `CC[C@H](C)[C@H](NC(=O)[C@@H](NC(=O)[C@H](Cc1c[nH]c2ccccc12)NC(C)=O)[C@@H](C)O)C(=O)N[C@H]1CSSC[C@@H](C(=O)N[C@@H](Cc2c[nH]c3ccccc23)C(=O)N2CCC[C@H]2C(=O)N[C@H](CCCCNC(=O)CN2CCN(CC(=O)O)CCN(CC(=O)O)CCN(CC(=O)O)CC2)C(N)=O)NC(=O)[C@H](CC(=O)O)NC(=O)[C@H](Cc2cnc[nH]2)NC(=O)[C@H](Cc2cccc3ccccc23)NC(=O)[C@H](CC(N)=O)NC(=O)[C@H](CC(N)=O)NC1=O` [compound 74, Ac-W-T-I-C(3)-N-N-(1Nal)-H-D-C(3)-W-P-[D-Lys(DOTA)]-NH2] (Ac-WTICNN[1Nal]HDCWP[dK](DOTA)-NH2; disulfide 4-10), for which the Kd is 1 to 10 nM.

As for `CC[C@H](C)[C@H](NC(=O)[C@@H](NC(=O)[C@H](Cc1c[nH]c2ccccc12)NC(C)=O)[C@@H](C)O)C(=O)N[C@H]1CSSC[C@@H](C(=O)N[C@@H](Cc2cccc3ccccc23)C(=O)N2CCC[C@H]2C(=O)N[C@H](CCCCNC(=O)CN2CCN(CC(=O)O)CCN(CC(=O)O)CCN(CC(=O)O)CC2)C(N)=O)NC(=O)[C@H](CC(=O)O)NC(=O)[C@H](Cc2cnc[nH]2)NC(=O)[C@H](Cc2c[nH]c3ccccc23)NC(=O)[C@H](CC(N)=O)NC(=O)[C@H](CC(N)=O)NC1=O` [compound 76, Ac-W-T-I-C(3)-N-N-W-H-D-C(3)-(1Nal)-P-[D-Lys(DOTA)]-NH2] (Ac-WTICNNWHDC[1Nal]P[dK](DOTA)-NH2; disulfide 4-10), the Kd fell in the range of 1 to 10 nM.

Regarding `CC[C@H](C)[C@H](NC(=O)[C@@H](NC(=O)[C@H](Cc1c[nH]c2ccccc12)NC(C)=O)[C@@H](C)O)C(=O)N[C@H]1CSSC[C@@H](C(=O)N[C@@H](Cc2ccc3ccccc3c2)C(=O)N2CCC[C@H]2C(=O)N[C@H](CCCCNC(=O)CN2CCN(CC(=O)O)CCN(CC(=O)O)CCN(CC(=O)O)CC2)C(N)=O)NC(=O)[C@H](CC(=O)O)NC(=O)[C@H](Cc2cnc[nH]2)NC(=O)[C@H](Cc2c[nH]c3ccccc23)NC(=O)[C@H](CC(N)=O)NC(=O)[C@H](CC(N)=O)NC1=O` [compound 77, Ac-W-T-I-C(3)-N-N-W-H-D-C(3)-(2Nal)-P-[D-Lys(DOTA)]-NH2] (Ac-WTICNNWHDC[2Nal]P[dK](DOTA)-NH2; disulfide 4-10), the Kd was in the range of 10 to 100 nM.

Take `CC[C@H](C)[C@H](NC(=O)[C@@H](NC(=O)[C@H](Cc1c[nH]c2ccccc12)NC(C)=O)[C@@H](C)O)C(=O)N[C@H]1CSSCC(C(=O)N[C@@H](Cc2c[nH]c3ccccc23)C(=O)N2CCC[C@H]2C(=O)N[C@H](CCCCNC(=O)CN2CCN(CC(=O)O)CCN(CC(=O)O)CCN(CC(=O)O)CC2)C(N)=O)NC(=O)[C@H](CC(=O)O)NC(=O)[C@H](Cc2cnc[nH]2)NC(=O)[C@H](Cc2c[nH]c3ncccc23)NC(=O)[C@H](CC(N)=O)NC(=O)[C@H](CC(N)=O)NC1=O` (stereo partly drawn) [compound 85, Ac-W-T-I-C(3)-N-N-(7Aza-W)-H-D-C(3)-W-P-[D-Lys(DOTA)]-NH2] (Ac-WTICNN[Trp(7-aza)]HD[ξC]WP[dK](DOTA)-NH2; disulfide 4-10): the Kd was in the range of 1 to 10 nM.

As for `CC[C@H](C)[C@H](NC(=O)[C@@H](NC(=O)[C@H](Cc1c[nH]c2ccccc12)NC(C)=O)[C@@H](C)O)C(=O)N[C@H]1CSSC[C@@H](C(=O)N[C@@H](Cc2c[nH]c3ccccc23)C(=O)N2CCC[C@H]2C(=O)N[C@H](CCCCNC(=O)CN2CCN(CC(=O)O)CCN(CC(=O)O)CCN(CC(=O)O)CC2)C(N)=O)NC(=O)[C@H](CC(=O)O)NC(=O)[C@H](Cc2cnc[nH]2)NC(=O)[C@H](Cc2c[nH]c3ccc(OC)cc23)NC(=O)[C@H](CC(N)=O)NC(=O)[C@H](CC(N)=O)NC1=O` [compound 86, Ac-W-T-I-C(3)-N-N-(5Ome-W)-H-D-C(3)-W-P-[D-Lys(DOTA)]-NH2] (Ac-WTICNN[Trp(5-OMe)]HDCWP[dK](DOTA)-NH2; disulfide 4-10), the equilibrium dissociation constant (Kd) lay in the range of 10 to 100 nM.

`CC[C@H](C)[C@H](NC(=O)[C@@H](NC(=O)[C@H](Cc1c[nH]c2ccccc12)NC(C)=O)[C@@H](C)O)C(=O)N[C@H]1CSSC[C@@H](C(=O)N[C@@H](Cc2c[nH]c3ncccc23)C(=O)N2CCC[C@H]2C(=O)N[C@H](CCCCNC(=O)CN2CCN(CC(=O)O)CCN(CC(=O)O)CCN(CC(=O)O)CC2)C(N)=O)NC(=O)[C@H](CC(=O)O)NC(=O)[C@H](Cc2cnc[nH]2)NC(=O)[C@H](Cc2c[nH]c3ccccc23)NC(=O)[C@H](CC(N)=O)NC(=O)[C@H](CC(N)=O)NC1=O` [compound 87, Ac-W-T-I-C(3)-N-N-W-H-D-C(3)-(7Aza-W)-P-[D-Lys(DOTA)]-NH2] (Ac-WTICNNWHDC[Trp(7-aza)]P[dK](DOTA)-NH2; disulfide 4-10): the dissociation constant (Kd) was 10 to 100 nM.

As to `CC[C@H](C)[C@H](NC(=O)[C@@H](NC(=O)[C@H](Cc1c[nH]c2ccccc12)NC(C)=O)[C@@H](C)O)C(=O)N[C@H]1CSSC[C@@H](C(=O)N[C@@H](Cc2c[nH]c3ccc(OC)cc23)C(=O)N2CCC[C@H]2C(=O)N[C@H](CCCCNC(=O)CN2CCN(CC(=O)O)CCN(CC(=O)O)CCN(CC(=O)O)CC2)C(N)=O)NC(=O)[C@H](CC(=O)O)NC(=O)[C@H](Cc2cnc[nH]2)NC(=O)[C@H](Cc2c[nH]c3ccccc23)NC(=O)[C@H](CC(N)=O)NC(=O)[C@H](CC(N)=O)NC1=O` [compound 88, Ac-W-T-I-C(3)-N-N-W-H-D-C(3)-(5Ome-W)-P-[D-Lys(DOTA)]-NH2] (Ac-WTICNNWHDC[Trp(5-OMe)]P[dK](DOTA)-NH2; disulfide 4-10), the Kd lay within 100 to 300 nM.

`CC[C@H](C)[C@H](NC(=O)[C@@H](NC(=O)[C@H](Cc1c[nH]c2ccccc12)NC(C)=O)[C@@H](C)O)C(=O)N[C@H]1CSSC[C@@H](C(=O)NC(Cc2c[nH]c3ccccc23)C(=O)N2CCC[C@H]2C(=O)N[C@H](CCCCNC(=O)COCCOCCOCCOCCOCCOCCOCCOCCNC(=O)CN2CCN(CC(=O)O)CCN(CC(=O)O)CCN(CC(=O)O)CC2)C(N)=O)NC(=O)[C@H](CC(=O)O)NC(=O)[C@H](Cc2cnc[nH]2)NC(=O)[C@H](Cc2c[nH]c3ccccc23)NC(=O)[C@H](CC(N)=O)NC(=O)[C@H](CC(N)=O)NC1=O` (stereo partly drawn) [compound 89, Ac-W-T-I-C(3)-N-N-W-H-D-C(3)-W-P-(D-Lys)-PEG8-DOTA-NH2] (Ac-WTICNNWHDC[ξW]P[dK](X2)-NH2; disulfide 4-10): the Kd lay within 1 to 10 nM.

Take `CCCCCC(=O)NCC[C@@H]1NC(=O)[C@@H](NC(=O)[C@@H](NC(=O)[C@@H](NC(=O)[C@H](Cc2c[nH]c3ccccc23)NC(C)=O)[C@@H](C)O)[C@@H](C)CC)CSSC[C@@H](C(=O)N[C@@H](Cc2c[nH]c3ccccc23)C(=O)N2CCC[C@H]2C(=O)N[C@H](CCCCNC(=O)CN2CCN(CC(=O)O)CCN(CC(=O)O)CCN(CC(=O)O)CC2)C(N)=O)NC(=O)[C@H](CC(=O)O)NC(=O)[C@H](Cc2cnc[nH]2)NC(=O)[C@H](Cc2c[nH]c3ccccc23)NC(=O)[C@H](CC(N)=O)NC1=O` [compound 90, Ac-W-T-I-C(3)-(DAB-4-NHCOC5H11)-N-W-H-D-C(3)-W-P-[D-Lys(DOTA)]-NH2] (Ac-WTIC[Dab](Hexanoyl)NWHDCWP[dK](DOTA)-NH2; disulfide 4-10): the Kd lay in the range of 10 to 100 nM.

Regarding `CCCCCCCC(=O)NCC[C@@H]1NC(=O)[C@@H](NC(=O)[C@@H](NC(=O)[C@@H](NC(=O)[C@H](Cc2c[nH]c3ccccc23)NC(C)=O)[C@@H](C)O)[C@@H](C)CC)CSSC[C@@H](C(=O)N[C@@H](Cc2c[nH]c3ccccc23)C(=O)N2CCC[C@H]2C(=O)N[C@H](CCCCNC(=O)CN2CCN(CC(=O)O)CCN(CC(=O)O)CCN(CC(=O)O)CC2)C(N)=O)NC(=O)[C@H](CC(=O)O)NC(=O)[C@H](Cc2cnc[nH]2)NC(=O)[C@H](Cc2c[nH]c3ccccc23)NC(=O)[C@H](CC(N)=O)NC1=O` [compound 91, Ac-W-T-I-C(3)-(DAB-4-NHCOC7H15)-N-W-H-D-C(3)-W-P-[D-Lys(DOTA)]-NH2] (Ac-WTIC[Dab](Octanoyl)NWHDCWP[dK](DOTA)-NH2; disulfide 4-10), the Kd lay in the range of 10 to 100 nM.
